Measured values reported in publication PMC9532703, “A novel small molecule RK-019 inhibits FGFR2-amplification gastric cancer cell proliferation and induces apoptosis in vitro and in vivo” (Frontiers in Pharmacology, 2022).

Columns and labels:
Assay in all cases: Kinase selectivity panel
Type in all cases: biochemical
[1] = target: T1, IKKα(h) (Homo sapiens, UniProt O15111); settings: read-out: Inhibition(%) @ 1 µM RK-019
T1 construct: purchased Eurofins Discovery Services (KinaseProfiler)
Procedure, shortened: (§1)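 Single-point selectivity screen: 1 µM compound, recombinant human enzyme, in vitro ATP-site competition binding; result expressed as inhibition ratio.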

[2] = target: T2, CDKL4(h) (Homo sapiens, UniProt Q5MAI5); settings: read-out: Inhibition(%) @ 1 µM RK-019
T2 construct: purchased Eurofins Discovery Services (KinaseProfiler)
Procedure, shortened: as §1

[3] = target: T3, MLK3(h) (Homo sapiens, UniProt Q16584); settings: read-out: Inhibition(%) @ 1 µM RK-019
T3 construct: purchased Eurofins Discovery Services (KinaseProfiler)
Procedure, shortened: as §1

[4] = target: T4, EphB4(h) (Homo sapiens, UniProt P54760); settings: read-out: Inhibition(%) @ 1 µM RK-019
T4 construct: purchased Eurofins Discovery Services (KinaseProfiler)
Procedure, shortened: as §1

[5] = target: T5, Src(T341M)(h) (Homo sapiens, UniProt P12931, T341M); settings: read-out: Inhibition(%) @ 1 µM RK-019
T5 construct: purchased Eurofins Discovery Services (KinaseProfiler)
Procedure, shortened: as §1

[6] = target: T6, CDK13/cyclinK(h) (Homo sapiens, UniProt Q14004); settings: read-out: Inhibition(%) @ 1 µM RK-019
T6 construct: purchased Eurofins Discovery Services (KinaseProfiler)
Procedure, shortened: as §1

[7] = target: T7, DCAMKL3(h) (Homo sapiens, UniProt Q9C098); settings: read-out: Inhibition(%) @ 1 µM RK-019
T7 construct: purchased Eurofins Discovery Services (KinaseProfiler)
Procedure, shortened: as §1

[8] = target: T8, CDK1/cyclinB(h) (Homo sapiens, UniProt P06493); settings: read-out: Inhibition(%) @ 1 µM RK-019
T8 construct: purchased Eurofins Discovery Services (KinaseProfiler)
Procedure, shortened: as §1

[9] = target: T9, PI3 Kinase (p110a(E545K)/p85a)(h) (Homo sapiens, UniProt P42336, E545K); settings: read-out: Inhibition(%) @ 1 µM RK-019
T9 construct: purchased Eurofins Discovery Services (KinaseProfiler)
Procedure, shortened: as §1

[10] = target: T10, ROCK-II(h) (Homo sapiens, UniProt O75116); settings: read-out: Inhibition(%) @ 1 µM RK-019
T10 construct: purchased Eurofins Discovery Services (KinaseProfiler)
Procedure, shortened: as §1

[11] = target: T11, NEK9(h) (Homo sapiens, UniProt Q8TD19); settings: read-out: Inhibition(%) @ 1 µM RK-019
T11 construct: purchased Eurofins Discovery Services (KinaseProfiler)
Procedure, shortened: as §1

[12] = target: T12, MELK(h) (Homo sapiens, UniProt Q14680); settings: read-out: Inhibition(%) @ 1 µM RK-019
T12 construct: purchased Eurofins Discovery Services (KinaseProfiler)
Procedure, shortened: as §1

[13] = target: T13, ATM(h) (Homo sapiens, UniProt Q13315); settings: read-out: Inhibition(%) @ 1 µM RK-019
T13 construct: purchased Eurofins Discovery Services (KinaseProfiler)
Procedure, shortened: as §1

[14] = target: T14, TTBK1(h) (Homo sapiens, UniProt Q5TCY1); settings: read-out: Inhibition(%) @ 1 µM RK-019
T14 construct: purchased Eurofins Discovery Services (KinaseProfiler)
Procedure, shortened: as §1

[15] = target: T15, PI3 Kinase (p110a(H1047R)/p85a)(m) (Mus musculus, UniProt P42337, H1047R); settings: read-out: Inhibition(%) @ 1 µM RK-019
T15 construct: purchased Eurofins Discovery Services (KinaseProfiler)

[16] = target: T16, MKK3(h) (Homo sapiens, UniProt P46734); settings: read-out: Inhibition(%) @ 1 µM RK-019
T16 construct: purchased Eurofins Discovery Services (KinaseProfiler)
Procedure, shortened: as §1

[17] = target: T17, PKBγ(h) (Homo sapiens, UniProt Q9Y243); settings: read-out: Inhibition(%) @ 1 µM RK-019
T17 construct: purchased Eurofins Discovery Services (KinaseProfiler)
Procedure, shortened: as §1

[18] = target: T18, Haspin(h) (Homo sapiens, UniProt Q8TF76); settings: read-out: Inhibition(%) @ 1 µM RK-019
T18 construct: purchased Eurofins Discovery Services (KinaseProfiler)
Procedure, shortened: as §1

[19] = target: T19, MEKK2(h) (Homo sapiens, UniProt Q9Y2U5); settings: read-out: Inhibition(%) @ 1 µM RK-019
T19 construct: purchased Eurofins Discovery Services (KinaseProfiler)
Procedure, shortened: as §1

[20] = target: T20, VRK2(h) (Homo sapiens, UniProt Q86Y07); settings: read-out: Inhibition(%) @ 1 µM RK-019
T20 construct: purchased Eurofins Discovery Services (KinaseProfiler)
Procedure, shortened: as §1

[21] = target: T21, ROCK-I(h) (Homo sapiens, UniProt Q13464); settings: read-out: Inhibition(%) @ 1 µM RK-019
T21 construct: purchased Eurofins Discovery Services (KinaseProfiler)
Procedure, shortened: as §1

[22] = target: T22, GSK3α(h) (Homo sapiens, UniProt P49840); settings: read-out: Inhibition(%) @ 1 µM RK-019
T22 construct: purchased Eurofins Discovery Services (KinaseProfiler)
Procedure, shortened: as §1

[23] = target: T23, FGFR1(h) (Homo sapiens, UniProt P11362)
T23 construct: purchased Eurofins Discovery Services (KinaseProfiler)
Procedure, shortened: as §1

[24] = target: T24, MST3(h) (Homo sapiens, UniProt Q9Y6E0); settings: read-out: Inhibition(%) @ 1 µM RK-019
T24 construct: purchased Eurofins Discovery Services (KinaseProfiler)
Procedure, shortened: as §1

[25] = target: T25, PI3 Kinase (p110b/p85a)(m) (Mus musculus, UniProt Q8BTI9); settings: read-out: Inhibition(%) @ 1 µM RK-019
T25 construct: purchased Eurofins Discovery Services (KinaseProfiler)

[26] = target: T26, CaMKIV(h) (Homo sapiens, UniProt Q16566); settings: read-out: Inhibition(%) @ 1 µM RK-019
T26 construct: purchased Eurofins Discovery Services (KinaseProfiler)
Procedure, shortened: as §1

[27] = target: T27, DDR1(h) (Homo sapiens, UniProt Q08345); settings: read-out: Inhibition(%) @ 1 µM RK-019
T27 construct: purchased Eurofins Discovery Services (KinaseProfiler)
Procedure, shortened: as §1

[28] = target: T28, Axl(h) (Homo sapiens, UniProt P30530); settings: read-out: Inhibition(%) @ 1 µM RK-019
T28 construct: purchased Eurofins Discovery Services (KinaseProfiler)
Procedure, shortened: as §1

[29] = target: T29, ULK3(h) (Homo sapiens, UniProt Q6PHR2); settings: read-out: Inhibition(%) @ 1 µM RK-019
T29 construct: purchased Eurofins Discovery Services (KinaseProfiler)
Procedure, shortened: as §1

[30] = target: T30, PKCδ(h) (Homo sapiens, UniProt Q05655); settings: read-out: Inhibition(%) @ 1 µM RK-019
T30 construct: purchased Eurofins Discovery Services (KinaseProfiler)
Procedure, shortened: as §1

[31] = target: T31, PI3 Kinase (p120g)(h) (Homo sapiens, UniProt P48736); settings: read-out: Inhibition(%) @ 1 µM RK-019
T31 construct: purchased Eurofins Discovery Services (KinaseProfiler)
Procedure, shortened: as §1

[32] = target: T32, CaMKK2(h) (Homo sapiens, UniProt Q96RR4); settings: read-out: Inhibition(%) @ 1 µM RK-019
T32 construct: purchased Eurofins Discovery Services (KinaseProfiler)
Procedure, shortened: as §1

[33] = target: T33, FGFR4(h) (Homo sapiens, UniProt P22455)
T33 construct: purchased Eurofins Discovery Services (KinaseProfiler)
Procedure, shortened: as §1

[34] = target: T34, MAPK2(h) (Homo sapiens, UniProt P28482); settings: read-out: Inhibition(%) @ 1 µM RK-019
T34 construct: purchased Eurofins Discovery Services (KinaseProfiler)
Procedure, shortened: as §1

[35] = target: T35, WNK2(h) (Homo sapiens, UniProt Q9Y3S1); settings: read-out: Inhibition(%) @ 1 µM RK-019
T35 construct: purchased Eurofins Discovery Services (KinaseProfiler)
Procedure, shortened: as §1

T33 sequence (P22455 22-802): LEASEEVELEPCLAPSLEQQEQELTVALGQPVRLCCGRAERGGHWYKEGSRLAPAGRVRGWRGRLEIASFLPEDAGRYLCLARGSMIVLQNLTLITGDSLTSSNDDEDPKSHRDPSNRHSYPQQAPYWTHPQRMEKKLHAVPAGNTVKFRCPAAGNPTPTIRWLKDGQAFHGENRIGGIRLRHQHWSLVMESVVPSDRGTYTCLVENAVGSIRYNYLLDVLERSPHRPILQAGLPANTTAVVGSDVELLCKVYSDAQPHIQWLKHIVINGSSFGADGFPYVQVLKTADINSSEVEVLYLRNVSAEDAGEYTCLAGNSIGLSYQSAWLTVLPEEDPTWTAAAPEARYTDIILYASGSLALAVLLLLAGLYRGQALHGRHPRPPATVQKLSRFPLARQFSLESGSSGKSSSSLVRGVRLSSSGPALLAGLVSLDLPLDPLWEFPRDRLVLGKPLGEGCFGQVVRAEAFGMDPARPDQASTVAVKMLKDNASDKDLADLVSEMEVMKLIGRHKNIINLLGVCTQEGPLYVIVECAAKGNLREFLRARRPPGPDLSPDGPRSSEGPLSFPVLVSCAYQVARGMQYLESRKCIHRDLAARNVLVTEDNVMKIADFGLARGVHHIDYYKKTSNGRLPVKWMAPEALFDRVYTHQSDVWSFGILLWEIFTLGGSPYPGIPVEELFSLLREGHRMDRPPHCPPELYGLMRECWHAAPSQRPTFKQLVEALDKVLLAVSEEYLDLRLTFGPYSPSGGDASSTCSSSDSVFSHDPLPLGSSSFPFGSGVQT
T23 sequence (P11362 22-822): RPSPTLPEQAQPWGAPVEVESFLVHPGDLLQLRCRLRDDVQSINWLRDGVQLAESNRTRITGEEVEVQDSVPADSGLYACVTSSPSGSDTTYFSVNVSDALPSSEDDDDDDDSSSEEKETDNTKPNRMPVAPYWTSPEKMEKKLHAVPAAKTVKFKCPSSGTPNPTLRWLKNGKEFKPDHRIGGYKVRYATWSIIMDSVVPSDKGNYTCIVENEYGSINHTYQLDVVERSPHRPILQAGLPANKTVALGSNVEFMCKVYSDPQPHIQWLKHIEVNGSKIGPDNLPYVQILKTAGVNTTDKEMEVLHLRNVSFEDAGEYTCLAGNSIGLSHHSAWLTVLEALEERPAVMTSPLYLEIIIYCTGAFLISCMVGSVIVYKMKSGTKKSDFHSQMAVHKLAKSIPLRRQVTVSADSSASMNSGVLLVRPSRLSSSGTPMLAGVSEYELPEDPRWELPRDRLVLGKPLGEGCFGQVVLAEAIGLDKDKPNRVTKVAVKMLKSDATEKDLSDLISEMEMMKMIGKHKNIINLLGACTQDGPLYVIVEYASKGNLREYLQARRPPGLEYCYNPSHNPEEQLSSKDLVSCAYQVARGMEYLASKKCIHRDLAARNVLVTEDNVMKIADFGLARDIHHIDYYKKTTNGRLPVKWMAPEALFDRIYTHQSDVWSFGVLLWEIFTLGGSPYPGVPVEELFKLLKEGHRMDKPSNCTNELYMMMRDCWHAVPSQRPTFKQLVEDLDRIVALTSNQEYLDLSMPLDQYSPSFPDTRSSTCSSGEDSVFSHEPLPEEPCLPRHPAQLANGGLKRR
T13 sequence (Q13315 whole entry): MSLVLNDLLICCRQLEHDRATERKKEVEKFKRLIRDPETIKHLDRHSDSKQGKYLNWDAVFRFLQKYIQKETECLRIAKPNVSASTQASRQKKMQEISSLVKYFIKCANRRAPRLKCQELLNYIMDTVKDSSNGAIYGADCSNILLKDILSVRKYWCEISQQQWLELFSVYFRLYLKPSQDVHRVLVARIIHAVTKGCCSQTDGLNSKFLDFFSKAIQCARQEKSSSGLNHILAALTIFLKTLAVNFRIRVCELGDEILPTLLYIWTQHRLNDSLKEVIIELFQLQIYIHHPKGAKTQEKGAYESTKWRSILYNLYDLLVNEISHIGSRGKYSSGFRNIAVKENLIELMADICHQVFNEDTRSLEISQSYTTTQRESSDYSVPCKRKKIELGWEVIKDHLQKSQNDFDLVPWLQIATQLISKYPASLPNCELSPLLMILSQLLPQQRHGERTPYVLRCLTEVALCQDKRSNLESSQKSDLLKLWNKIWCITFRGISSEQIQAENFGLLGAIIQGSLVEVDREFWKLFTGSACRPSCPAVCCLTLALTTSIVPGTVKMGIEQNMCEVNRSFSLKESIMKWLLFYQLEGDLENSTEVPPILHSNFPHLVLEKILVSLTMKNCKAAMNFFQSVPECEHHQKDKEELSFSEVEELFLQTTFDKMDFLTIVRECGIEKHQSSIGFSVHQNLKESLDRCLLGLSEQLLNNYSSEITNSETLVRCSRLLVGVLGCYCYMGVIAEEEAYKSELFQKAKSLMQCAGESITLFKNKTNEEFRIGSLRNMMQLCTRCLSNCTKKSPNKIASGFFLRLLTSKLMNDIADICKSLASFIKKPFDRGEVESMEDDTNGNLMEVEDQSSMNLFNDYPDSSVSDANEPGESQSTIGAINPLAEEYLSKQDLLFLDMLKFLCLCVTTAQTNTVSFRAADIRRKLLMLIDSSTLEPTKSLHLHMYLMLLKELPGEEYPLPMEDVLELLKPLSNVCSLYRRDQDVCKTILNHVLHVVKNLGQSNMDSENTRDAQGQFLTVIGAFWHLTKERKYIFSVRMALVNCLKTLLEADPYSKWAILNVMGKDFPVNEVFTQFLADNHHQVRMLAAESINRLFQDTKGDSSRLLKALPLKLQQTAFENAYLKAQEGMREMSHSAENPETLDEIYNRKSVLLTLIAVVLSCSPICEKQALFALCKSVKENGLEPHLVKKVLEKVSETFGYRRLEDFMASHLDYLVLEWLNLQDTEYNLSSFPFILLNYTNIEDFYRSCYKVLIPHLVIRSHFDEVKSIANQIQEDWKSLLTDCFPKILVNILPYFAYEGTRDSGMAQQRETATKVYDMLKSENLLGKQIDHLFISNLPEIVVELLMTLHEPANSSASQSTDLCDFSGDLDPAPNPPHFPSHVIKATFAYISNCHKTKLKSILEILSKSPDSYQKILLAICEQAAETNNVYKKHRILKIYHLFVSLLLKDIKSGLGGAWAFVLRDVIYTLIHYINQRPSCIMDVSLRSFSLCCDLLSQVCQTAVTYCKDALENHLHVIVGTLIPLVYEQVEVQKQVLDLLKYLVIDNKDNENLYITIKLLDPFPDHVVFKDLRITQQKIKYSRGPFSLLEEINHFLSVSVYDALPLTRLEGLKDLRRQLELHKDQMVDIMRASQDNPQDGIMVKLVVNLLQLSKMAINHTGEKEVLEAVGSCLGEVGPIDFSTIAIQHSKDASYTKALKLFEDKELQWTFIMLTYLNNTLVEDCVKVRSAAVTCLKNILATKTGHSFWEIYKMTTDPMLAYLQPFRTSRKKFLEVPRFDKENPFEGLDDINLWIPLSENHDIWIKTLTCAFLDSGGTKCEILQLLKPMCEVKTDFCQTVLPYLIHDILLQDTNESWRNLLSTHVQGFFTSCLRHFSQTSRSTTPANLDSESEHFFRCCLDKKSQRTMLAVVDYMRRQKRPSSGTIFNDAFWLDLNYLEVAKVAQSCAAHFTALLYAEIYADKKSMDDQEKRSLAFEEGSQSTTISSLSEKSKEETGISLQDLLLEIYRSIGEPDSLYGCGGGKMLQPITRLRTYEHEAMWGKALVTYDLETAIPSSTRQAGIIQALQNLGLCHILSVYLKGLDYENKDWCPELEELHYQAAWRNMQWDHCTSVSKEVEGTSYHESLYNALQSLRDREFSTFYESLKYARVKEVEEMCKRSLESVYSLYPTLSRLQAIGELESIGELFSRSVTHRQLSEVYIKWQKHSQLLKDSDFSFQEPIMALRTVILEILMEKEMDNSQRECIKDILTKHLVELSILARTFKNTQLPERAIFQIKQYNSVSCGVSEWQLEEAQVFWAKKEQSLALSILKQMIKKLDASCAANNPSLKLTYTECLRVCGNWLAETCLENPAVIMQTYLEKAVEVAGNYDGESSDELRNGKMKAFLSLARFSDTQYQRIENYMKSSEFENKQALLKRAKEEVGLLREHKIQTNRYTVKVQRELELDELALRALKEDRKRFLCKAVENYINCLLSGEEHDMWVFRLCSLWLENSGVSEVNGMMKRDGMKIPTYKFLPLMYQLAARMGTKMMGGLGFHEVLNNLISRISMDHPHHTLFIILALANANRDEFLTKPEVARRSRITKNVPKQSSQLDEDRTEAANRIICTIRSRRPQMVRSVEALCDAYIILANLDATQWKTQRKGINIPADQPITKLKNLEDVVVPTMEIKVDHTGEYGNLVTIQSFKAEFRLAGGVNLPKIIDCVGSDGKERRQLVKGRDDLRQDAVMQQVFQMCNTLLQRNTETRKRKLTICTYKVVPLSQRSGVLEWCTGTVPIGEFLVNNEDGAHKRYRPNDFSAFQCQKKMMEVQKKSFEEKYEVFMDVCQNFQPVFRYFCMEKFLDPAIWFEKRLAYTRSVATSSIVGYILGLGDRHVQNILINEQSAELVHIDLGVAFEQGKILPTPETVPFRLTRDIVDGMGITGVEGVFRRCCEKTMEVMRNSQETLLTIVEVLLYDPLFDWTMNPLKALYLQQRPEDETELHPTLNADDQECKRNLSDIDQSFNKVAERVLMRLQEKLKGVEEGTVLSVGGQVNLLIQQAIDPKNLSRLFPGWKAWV
T17 sequence (Q9Y243 whole entry): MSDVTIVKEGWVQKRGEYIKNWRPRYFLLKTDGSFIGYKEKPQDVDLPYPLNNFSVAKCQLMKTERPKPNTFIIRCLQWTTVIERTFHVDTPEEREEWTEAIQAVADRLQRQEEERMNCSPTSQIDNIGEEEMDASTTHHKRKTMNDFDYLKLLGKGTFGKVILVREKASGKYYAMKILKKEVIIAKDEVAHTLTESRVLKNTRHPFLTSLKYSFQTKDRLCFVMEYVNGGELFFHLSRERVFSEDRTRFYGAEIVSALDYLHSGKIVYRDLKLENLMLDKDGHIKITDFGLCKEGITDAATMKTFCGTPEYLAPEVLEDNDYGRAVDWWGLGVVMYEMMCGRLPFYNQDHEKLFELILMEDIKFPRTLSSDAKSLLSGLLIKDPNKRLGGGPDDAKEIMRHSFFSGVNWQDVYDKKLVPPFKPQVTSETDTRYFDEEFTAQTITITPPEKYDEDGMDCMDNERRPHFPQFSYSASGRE

In the case of `COc1cc(OC)cc(N(CCN[C@H](C)CO)c2ccc3ncc(-c4cnn(C)c4)c(=O)n3c2)c1` [RK-019, (R)-7-((3,5-dimethoxyphenyl) (2-((1-hydroxypropan-2-yl)amino)ethyl)amino)-3-(1-methyl-1H-pyrazol-4-yl)-4H-pyrido [1,2-a]pyrimidin-4-one], the activity at 1 µM [1] is reported as 100%, the activity at 1 µM [2] is reported as 90% and the activity at 1 µM [3] is reported as 98%. The activity at 1 µM [4] was 109%, the activity at 1 µM [5] was 98% and the activity at 1 µM [6] was 109%. For the same compound, the activity at 1 µM [7] was 127%, the activity at 1 µM [8] was 99% and the activity at 1 µM [9] was 100%. The activity at 1 µM [10] was 105%, the activity at 1 µM [11] was 91% and the activity at 1 µM [12] was 104%. The activity at 1 µM [13] was 105%, the activity at 1 µM [14] was 90% and the activity at 1 µM [15] was 100%. For the same compound, the activity at 1 µM [16] was 96%, the activity at 1 µM [17] was 94% and the activity at 1 µM [18] was 105%. The activity at 1 µM [19] was 96%, the activity at 1 µM [20] was 104% and the activity at 1 µM [21] was 101%. The activity at 1 µM [22] was 85%, the activity at 1 µM ([23]; FGFR1(h), read-out: Inhibition(%) @ 1 µM RK-019) was -1% and the inhibition at 1 µM ([23]; FGFR1, 1 µM, read-out: inhibition (hit in panel)) was greater than 90%. The activity at 1 µM [24] was 122%, the activity at 1 µM [25] was 98% and the activity at 1 µM [26] was 113%. For the same compound, the activity at 1 µM [27] was 19%, the activity at 1 µM [28] was 116% and the activity at 1 µM [29] was 91%. The activity at 1 µM [30] was 99%, the activity at 1 µM [31] was 102% and the activity at 1 µM [32] was 95%. It also gave an activity at 1 µM ([33]; FGFR4(h), read-out: Inhibition(%) @ 1 µM RK-019) of 5%, an inhibition at 1 µM ([33]; FGFR4, 1 µM, read-out: inhibition (hit in panel)) greater than 90% and an activity at 1 µM [34] of 115%. It also gave an activity at 1 µM [35] of 103%.
